“Also recorded” adds a separate entry of the source.
Experiments:
[1] = tested on: spinal nerve ligation model (Chung model); test: Spinal nerve ligation (Chung) model, mechanical allodynia; type: in vivo, rats; details: 25 mg/kg single dosing via i.p.; von Frey filaments
Experimental: Compound 14 and Compound 23 were prepared for i.p. administration as follows. 250 mg/ml of each of the compounds to be tested, was dissolved in a mixture of Cremophor EL/alcohol (90:10) (volume:volume), respectively, by brief sonication on ice, followed by further 10-fold dilution in saline solution (9% Cremophor EL; 1% ETOH and 90% saline) to give a final concentration of 25 mg/ml. before injection. 1 ml/kg (body weight) of compound solution was administered via i.p. to rats, to yield a dose of 25 mg/kg. 180–200 grams of body weight, male, Sprague-Dawley rats from Harlan were used. They were housed under the standard housing conditions and trained for 1 week before measurement of the baseline. The rats were prepared in the manner described in Example V, above, by i.p. admininstration of Taxol. The spinal nerve ligation surgery was performed as described by Kim & Chung (Kim, S. O., and Chung, J. M., An experimental model for peripheral neuropathy produced by segmental spinal nerve ligation in rat. Pain. 1992; 50:355–363.). The development of neuropathic pain was measured using 50% of threshold measurement using von Frey filaments. […] Generally speaking, the mechanical allodynia in spinal nerve ligation model rats fell in the range of 1–4 grams of the paw withdrawal threshold. The results of the tests are set forth in FIG. 8 and are summarized in the last two rows of Table III.

[2] = tested on: Taxol-induced neuropathic pain model in mice; test: Taxol-induced neuropathic pain model, mechanical allodynia (von Frey filament); type: in vivo
From the text: Taxol is a chemotherapeutic reagent for treatment of cancer patients. Cancer patients under Taxol chemotherapy can develop neuropathic pain, with a symptom of severe mechanical allodynia, so that a light touch (non-noxious stimulus in a normal condition) becomes painful. […] Recent studies have shown that Taxol is involved in TNF-alpha release in microglia cells. As one of the clinically relevant models, Taxol-induced neuropathic pain was developed in mice and rats. It is believed that small-diameter high threshold nociceptive C-fibers in the peripheral sensory nervous systems are largely, if not exclusively, affected in the Taxol-induced neuropathic pain models.
In this series of experiments, five-week old, male C57B1/6 mice were purchased from Charles River and housed at the Renovis animal facility in South San Francisco. Mice were trained for one week in an enclosure made of Plexiglas with dimensions of 2 in×2.5 in×3.5 in (W, H, and L) with a meshed metal support. The baseline of response to mechanical stimulus was measured using a von Frey Filament (0.6 g=3.84 mN). Normally, the baseline response is between 0 to 40%.
Taxol was dissolved (1 mg/ml) in 50% Cremophor EL and 50% alcohol, and freshly diluted with saline to the final concentration of 0.2 mg/ml in 10% Cremophor EL, 10% alcohol. Mice were administered Taxol at 1 mg/kg of body weight, via i.p. daily, while the animals of the control group received vehicle (10% Cremophor EL and 10% alcohol in saline).
Animals receiving this daily dose of Taxol will develop neuropathic pain. The mechanical allodynia was measured at day 7, 8, or 14 after Taxol administration.
A quantity of 200 mg of compound 14 (Example 14) was dissolved in 0.4 ml of 100% DMSO to yield a concentration of 500 mg/ml, and was kept at 4° C. until use. Methylcellulose was dissolved in deionized-distilled water to yield a concentration of 1%. The freshly prepared meythlcellulose was used to make a suspension of the compound, 10 mg of compound in 2.5% DMSO (V/V) and 1% methylcellulose. The suspension was sonicated for 6 min with a 5 second interval every 30 seconds before administration to animals.
A quantity of 50 mg/kg (body weight) compound or vehicle (2.5% DMSO and 1% methylcellulose), 100 μl/20 g (body weight) was given to animals via gavage feeding procedure in a randomized, blinded fashion. The animals were then placed in the enclosure for assay. Mechanical allodynia was measured with von Frey filament (0.6 g=[…]) at various times after administration.
Referring to FIG. 5, baseline in the group of animals was measured as 25+/−4% (n=24, ±SEM) before induction of neuropathic pain with Taxol (or sham treatment), where the response was measured with a von Frey filament (0.6 g=3.84 mN) as the percent of trials a withdrawal response is observed after probing with the filament. The higher the percentage, the greater the inferred pain.
Sixteen animals were treated with Taxol daily to induce neuropathic pain. Mechanical allodynia was assayed at day 8; average withdrawal response was measured as 81±5% (n=16, ±SEM). Sixteen animals were treated with matching vehicle to create sham animals. The Taxol and sham animals were then separated randomly into two groups of 8 animals each for drug vs. vehicle testing. Withdrawal responses to a von Frey filament probe were measured at 1, 6, 24, and 72 hours post-administration of drug or vehicle control, and averaged for each animal. […] Negative values reflect a reduction in inferred pain.
For mouse neuropathic pain studies, C57B1/6 strain, five-weeks old male mice were obtained from Charles River, San Diego, Calif. A total of 120 mice were used for the studies. 4 mice per cage were housed under standard conditions with 12-hour light and 12-hour dark cycles (in Renovis, Inc, South San Francisco facility). For rat neuropathic pain studies, male Sprague-Dawley rats, with body weights ranging from 180–200 grams, were obtained from Harlan. A total of 42 rats were used for this study. […]

[3] = Taxol/mice, P.O., Single dosing, 50 Mg/Kg body weight

| Compound | effect on mechanical allodynia (paw withdrawal threshold) [1] | time postdosing of analgesic effect ([2]; 50 mg/kg single dose via oral gavage) | effect on mechanical allodynia (Taxol-induced pain) ([2]; 50 mg/kg single dose via oral gavage, von Frey filament 0.6 g, measured 1, 6, 24, up to 48 or 72 hours postdosing) | Effective time Hour post dosing [2, 3] [h] | extent of block of mechanical allodynia [2, 3] |
| --- | --- | --- | --- | --- | --- |
| COc1ccc(CCCC=[N+]([O-])C(C)(C)C)cc1 [Compound 23] | significant analgesic effects over control; also recorded: attenuate mechanical allodynia | – | – | – | – |
| N-tert-butyl-C-(4-phenylpropyl)nitrone [Compound 14] | significant analgesic effects over control; also recorded: attenuate mechanical allodynia | up to 24 hour | inhibits mechanical allodynia; also recorded: significant reduction of mechanical allodynia; also recorded: activity preventing Taxol-induced pain | ~24 | block |

Source: patent US7115666B2, “Nitrone compounds, pharmaceutical compositions containing the same and methods for treating inflammation and neuropathic pain” (Renovis, Inc., priority 2002, dated 2006)
